According to patent publication US9012493B2, “1-heterodiene derivative and pest control agent” (Nippon Soda Co., Ltd., priority 2009, dated 2015):

Legend:
[1] = test system: Rice Armyworm (Mythimna Separata); experiment: Efficacy test against rice armyworm, corn leaf dip; type: in vivo; settings: 125 ppm, emulsifiable concentrate diluted with water, corn leaves immersed, second instar larvae, after 5 days, 25° C.
Description: (§1) Test Examples of the pest control agent thus obtained according to the present invention are shown below. In respective Test Examples, the insecticidal rate (%) was determined by the following calculation equation. Insecticidal rate (%)=(number of dead pests/number of released pests)×100
The emulsifiable concentrate obtained according to Formulation of Formulation Example 2 was diluted with water so as to control the concentration of the compound to 125 ppm. Leaves of corn were immersed in this diluted solution for 30 seconds and then air-dried. The leaves were put in a petri dish on which a filter paper is laid, and then five second instar larvae of rice armyworm were inoculated. After covering the petri dish with a glass lid, the petri dish was placed in a temperature-controlled room at a temperature of 25° C. and a humidity of 65%. After 5 days, life and death were examined and the insecticidal rate was determined. The test was repeated twice.

[2] = test system: Sweetpotato Whitefly (Bemisia Tabaci); experiment: Efficacy test against sweetpotato whitefly, sprayed tomato leaf; type: in vivo; settings: 125 ppm, emulsifiable concentrate diluted with water, adults (type B), after 2 days, 25° C.
Description: as §1
The emulsifiable concentrate obtained according to Formulation of Formulation Example 2 was diluted with water so as to control the concentration of the compound to 125 ppm. The diluted solution was sprayed over a tomato leaf obtained by cutting and then air-dried. Using absorbent cotton, the leaf was fixed to a flask so that a front surface of the leaf faces upward. Seven pairs of adults of sweetpotato whitefly (type B) were inoculated in this container, and the container was placed in a temperature-controlled room at a temperature of 25° C. and a humidity of 65%. After 2 days, life and death were examined and the insecticidal rate was determined. The test was repeated twice.

| SMILES | insecticidal rate [1] | insecticidal rate [2] |
| --- | --- | --- |
| C=C1SC(=Nc2ccc(C)cc2)C(=CSc2ccc3ccccc3c2)CC1(C)C (mixture of isomers) [Compound 2-88] | 100% | 100% |
| C=C1SC(=Nc2ccc(C)cc2)C(=CSc2ccc([N+](=O)[O-])cc2)CC1(C)C (mixture of isomers) [Compound 6-4] | 100% |  |
| C=C1SC(=Nc2ccc(C)cc2)C(=CSC2CCCCC2)CC1(C)C (mixture of isomers) [Compound 6-5] | 100% | 100% |
| C=C1SC(=Nc2ccc(C)cc2)C(=CSC2CCc3ccccc32)CC1(C)C (racemic) [Compound 2-115] | 100% | 100% |
| C=C1SC(=Nc2ccc(OC)cc2)C(=CSc2ccccc2)CC1(C)CCC=C(C)C (racemic) [Compound 2-130] | 100% | 100% |
| CC(C)=C1CC(=CSc2ccccc2)C(=Nc2ccc(Cl)cc2)S1 [Compound 1-2] | 100% | 100% |
| CC(C)=C1CC(=CSc2ccccc2)C(=[NH+]c2ccc(Cl)cc2)S1.F[B-](F)(F)F [Compound 1-3] | 100% | 100% |
| C=C1CCC(=CSc2ccccc2)C(=Nc2ccc(Cl)cc2)S1 [Compound 2-1] | 100% | 100% |
| C=C1CCC(=CSc2ccccc2)C(=Nc2ccc(C(F)(F)F)cc2)S1 [Compound 2-5] | 100% | 100% |
| C=C1SC(=Nc2ccc(C)cc2)C(=CSc2ccc(NC(C)=O)cc2)CC1(C)C [Compound 2-21] | 100% |  |
| C=C1SC(=Nc2ccc(C)cc2)C(=CSc2ccc(F)cc2)CC12CCCCC2 [Compound 2-24] | 100% | 100% |
| COc1ccc(N=C2SC(=C(C)C)CCC2=CSc2ncccn2)cc1 [Compound 2-43] | 100% |  |
| C=C1SC(=Nc2cc(Cl)ccc2Cl)C(=CSc2ccccc2)CC1(C)C [Compound 2-44] | 100% | 100% |
| C=C1SC(=Nc2ccc(C)cc2)C(=CSC(C)(C)C)CC1(C)C [Compound 2-74] | 100% | 100% |
| C=C1SC(=Nc2ccc(OC)cc2)C(=CSc2ccc(C=O)cc2)CC1(C)C [Compound 2-82] | 100% |  |
| C=C1SC(=Nc2ccc(OC)cc2)C(=CSc2ccc(C(F)(F)F)cn2)CC1(C)C [Compound 2-95] | 100% | 100% |
| C=C1SC(=Nc2ccc(C)cc2)C(=CSc2ccccc2CO)CC1(C)C [Compound 2-96] | 100% |  |
| C=C1SC(=Nc2ccc(OC)cc2)C(=CSc2cccc(Oc3ccccc3)c2)CC1(C)C [Compound 2-109] |  | 100% |
| C=C1SC(=Nc2ccc(C)cc2)C(=CSc2sccc2OC)CC1(C)C [Compound 2-116] | 100% | 100% |
| C=C1SC(=Nc2ccc(C)cc2)C(=CSc2cc(C)oc2C)CC1(C)C [Compound 2-123] | 100% | 100% |
| C=C1SC(=Nc2ccccc2)C(=CSc2nc(C)cnc2C)CC1(C)C [Compound 2-131] | 100% | 100% |
| C=C1SC(=Nc2ccc(C)cc2)C(=CSc2nccc(OC)n2)CC1(C)C [Compound 2-133] | 100% | 100% |
| C=C1CCC(=CSc2ccccn2)C(=Nc2ccc(C)cc2)S1 [Compound 4-1] | 100% |  |
| C=C1SC(=Nc2ccc(OC)cc2)C(=CSc2ccccn2)CC1(C)C [Compound 4-2] | 100% |  |
| C=C1SC(=Nc2ccc(C)cc2)C(=CSc2nccs2)CC1(C)C [Compound 4-3] |  | 100% |
| C=C1SC(=Nc2ccc(OC)cc2)C(=CSc2cccs2)CC1(C)C [Compound 4-4] | 100% | 100% |
